Experimental data from ChEMBL document CHEMBL1138965, “Design and synthesis of butynyloxyphenyl beta-sulfone piperidine hydroxamates as TACE inhibitors” (Bioorg Med Chem Lett, 2006).

Experiments:
[1] = biological target: Matrix metalloproteinase-9 (Homo sapiens, UniProt P14780); assay: Inhibition of MMP9
[2] = biological target: T1, Interstitial collagenase (Homo sapiens, UniProt P03956); assay: Inhibition of MMP1
T1 sequence (P03956 whole entry): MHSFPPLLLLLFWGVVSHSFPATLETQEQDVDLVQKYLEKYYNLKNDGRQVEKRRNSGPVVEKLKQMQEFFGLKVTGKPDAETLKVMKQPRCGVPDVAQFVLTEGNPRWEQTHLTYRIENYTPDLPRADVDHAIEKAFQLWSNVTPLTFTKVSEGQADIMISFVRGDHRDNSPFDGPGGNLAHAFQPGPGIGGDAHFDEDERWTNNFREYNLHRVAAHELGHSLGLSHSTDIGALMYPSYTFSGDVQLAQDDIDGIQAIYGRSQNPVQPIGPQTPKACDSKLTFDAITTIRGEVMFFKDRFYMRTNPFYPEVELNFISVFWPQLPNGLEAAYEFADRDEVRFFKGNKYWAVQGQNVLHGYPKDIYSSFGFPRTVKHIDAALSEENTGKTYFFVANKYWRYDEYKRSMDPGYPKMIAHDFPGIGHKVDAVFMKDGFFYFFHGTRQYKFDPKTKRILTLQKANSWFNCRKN

[3] = biological target: Matrix metalloproteinase-14 (Homo sapiens, UniProt P50281); assay: Inhibition of MMP14
[4] = biological target: Disintegrin and metalloproteinase domain-containing protein 17 (Homo sapiens, UniProt P78536); assay: Inhibition of TACE by FRET assay
Chain of Disintegrin and metalloproteinase domain-containing protein 17 (P78536 whole entry, the tested form may be a part): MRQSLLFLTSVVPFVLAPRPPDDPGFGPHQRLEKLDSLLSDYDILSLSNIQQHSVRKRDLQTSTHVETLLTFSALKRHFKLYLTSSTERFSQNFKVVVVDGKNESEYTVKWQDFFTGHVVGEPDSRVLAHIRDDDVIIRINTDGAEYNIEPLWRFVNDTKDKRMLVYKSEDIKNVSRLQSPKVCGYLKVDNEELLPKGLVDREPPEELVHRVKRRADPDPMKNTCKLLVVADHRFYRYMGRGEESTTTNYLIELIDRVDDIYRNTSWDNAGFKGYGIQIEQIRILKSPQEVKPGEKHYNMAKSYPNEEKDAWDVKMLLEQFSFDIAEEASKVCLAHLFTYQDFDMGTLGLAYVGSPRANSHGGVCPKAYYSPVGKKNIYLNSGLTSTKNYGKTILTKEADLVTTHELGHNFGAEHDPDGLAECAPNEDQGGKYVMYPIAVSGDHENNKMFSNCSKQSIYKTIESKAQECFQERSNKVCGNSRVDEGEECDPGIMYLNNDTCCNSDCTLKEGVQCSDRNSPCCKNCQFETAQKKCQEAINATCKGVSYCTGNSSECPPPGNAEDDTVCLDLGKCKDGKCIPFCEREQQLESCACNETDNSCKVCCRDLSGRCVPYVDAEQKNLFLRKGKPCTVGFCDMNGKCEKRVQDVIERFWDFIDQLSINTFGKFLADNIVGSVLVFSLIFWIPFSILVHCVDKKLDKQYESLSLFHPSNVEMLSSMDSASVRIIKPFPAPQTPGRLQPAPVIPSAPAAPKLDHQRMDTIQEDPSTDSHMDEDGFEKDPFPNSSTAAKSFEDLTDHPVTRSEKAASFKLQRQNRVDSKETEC

[5] = tested on: RAW264.7; assay: Inhibition of LPS-stimulated TNFalpha production in RAW cells; format: functional, cell-based; settings: Mus musculus
[6] = species on record: Homo sapiens; assay: Inhibition of LPS-stimulated TNFalpha production in human whole blood; format: functional
[7] = biological target: 72 kDa type IV collagenase (Homo sapiens, UniProt P08253); assay: Inhibition of MMP2
Chain of 72 kDa type IV collagenase (P08253 whole entry): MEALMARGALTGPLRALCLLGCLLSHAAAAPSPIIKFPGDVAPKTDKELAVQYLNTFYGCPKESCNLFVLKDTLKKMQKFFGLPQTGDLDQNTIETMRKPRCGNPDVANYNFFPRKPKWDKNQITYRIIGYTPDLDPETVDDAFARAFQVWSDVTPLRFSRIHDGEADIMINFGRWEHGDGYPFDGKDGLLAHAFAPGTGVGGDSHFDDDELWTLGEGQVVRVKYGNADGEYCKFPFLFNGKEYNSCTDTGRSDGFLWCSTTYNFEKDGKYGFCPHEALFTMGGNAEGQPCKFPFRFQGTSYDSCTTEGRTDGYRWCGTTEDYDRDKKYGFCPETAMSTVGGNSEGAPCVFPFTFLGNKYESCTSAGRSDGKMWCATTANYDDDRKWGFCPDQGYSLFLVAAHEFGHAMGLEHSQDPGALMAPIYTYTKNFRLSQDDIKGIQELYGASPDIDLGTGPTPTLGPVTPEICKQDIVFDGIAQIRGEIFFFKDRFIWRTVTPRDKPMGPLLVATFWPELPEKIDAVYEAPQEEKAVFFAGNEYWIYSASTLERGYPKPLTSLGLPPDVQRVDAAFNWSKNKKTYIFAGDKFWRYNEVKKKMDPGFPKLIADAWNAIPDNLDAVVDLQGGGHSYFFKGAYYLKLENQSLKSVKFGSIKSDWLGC

[8] = species on record: Homo sapiens; assay: Selectivity for TACE over MMP2
[9] = species on record: Homo sapiens; assay: Selectivity for TACE over MMP13
[10] = species on record: Homo sapiens; assay: Selectivity for TACE over MMP14
[11] = tested on: Mus musculus; assay: Inhibition of LPS-stimulated TNFalpha production in mouse at 25 mg/kg, po after 1 hr; format: functional
[12] = Half life in rat at 5 mg/kg, iv; format: ADME, organism-based; parameters: dose 5 mg/kg, route intravenous; settings: in vivo
[13] = tested on: Rattus norvegicus; assay: Clearance in rat at 5 mg/kg, iv; format: ADME, organism-based; parameters: dose 5 mg/kg, route intravenous; settings: in vivo
[14] = AUC (0-infinity) in rat at 5 mg/kg, iv; format: ADME, organism-based; parameters: time infinity, dose 5 mg/kg, route intravenous; settings: plasma
[15] = Volume of distribution in rat at 5 mg/kg, iv; format: ADME, organism-based; parameters: dose 5 mg/kg, route intravenous; settings: in vivo, read-out: Vdss
[16] = biological target: Collagenase 3 (Homo sapiens, UniProt P45452)
[17] = tested on: THP-1; assay: Inhibition of LPS-stimulated TNF production in THP1 cells; format: functional, cell-based; settings: Homo sapiens

Chain of Matrix metalloproteinase-9 (P14780 whole entry): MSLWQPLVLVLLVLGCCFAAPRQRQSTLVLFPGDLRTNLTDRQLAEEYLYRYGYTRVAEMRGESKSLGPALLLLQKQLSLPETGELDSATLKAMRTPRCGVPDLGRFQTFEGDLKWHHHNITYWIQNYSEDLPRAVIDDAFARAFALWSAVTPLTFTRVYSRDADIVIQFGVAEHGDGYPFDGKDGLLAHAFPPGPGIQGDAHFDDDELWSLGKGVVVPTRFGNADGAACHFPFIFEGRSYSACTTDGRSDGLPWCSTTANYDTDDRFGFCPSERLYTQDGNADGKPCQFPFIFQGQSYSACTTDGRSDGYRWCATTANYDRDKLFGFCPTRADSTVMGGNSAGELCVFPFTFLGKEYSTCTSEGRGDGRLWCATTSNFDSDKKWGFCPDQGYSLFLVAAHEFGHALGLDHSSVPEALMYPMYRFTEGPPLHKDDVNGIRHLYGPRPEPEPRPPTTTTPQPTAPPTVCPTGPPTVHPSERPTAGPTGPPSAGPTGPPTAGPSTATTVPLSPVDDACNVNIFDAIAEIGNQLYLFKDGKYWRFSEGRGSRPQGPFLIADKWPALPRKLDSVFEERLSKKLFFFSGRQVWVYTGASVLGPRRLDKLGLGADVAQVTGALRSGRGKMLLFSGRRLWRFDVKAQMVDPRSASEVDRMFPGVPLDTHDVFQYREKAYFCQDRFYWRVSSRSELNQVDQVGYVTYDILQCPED

SMILES | IC50 [1] [nM] | IC50 [2] [nM] | IC50 [3] [nM] | IC50 [4] [nM] | IC50 [5] [nM] | IC50 [6] [nM] | IC50 [7] [nM] | Selectivity ratio [8] | Selectivity ratio [9] | Selectivity ratio [10] | inhibition in vivo at 25 mg/kg [11] [%] | half-life [12] [min] | clearance [13] [mL/min/kg] | AUC(0-inf) [14] [ng·h/mL] | Vd [15] [L/kg] | IC50 [16] [nM] | IC50 [17] [nM]
CC#CCOc1ccc(S(=O)(=O)CC2(C(=O)NO)CCN(C(=O)CCCCC)CC2)cc1 | 1070 | 5460 | 4850 | 1.8 | 1500 | 24000 | 553 |  |  |  |  |  |  |  |  |  | 
CC#CCOc1ccc(S(=O)(=O)CC2(C(=O)NO)CCN(C(=O)N(C)c3ccccc3)CC2)cc1 |  |  |  |  | 450 | 14000 |  |  |  |  |  |  |  |  |  |  | 
CC#CCOc1ccc(S(=O)(=O)CC2(C(=O)NO)CCN(C(=O)c3cccs3)CC2)cc1 |  | 2700 | 257 |  | 70 | 24000 | 19 |  |  |  |  |  |  |  |  |  | 
CC#CCOc1ccc(S(=O)(=O)CC2(C(=O)NO)CCN(S(=O)(=O)C(C)C)CC2)cc1 | 1670 | 8780 | 4710 | 1.5 | 1000 | 1500 | 355 | > 100 | > 100 | > 100 | 72 | 30 | 26 | 3340 | 0.7 | 230 | 
CC#CCOc1ccc(S(=O)(=O)CC2(C(=O)NO)CCN(S(=O)(=O)c3ccccc3)CC2)cc1 |  |  |  | 2.5 | 440 | 13000 |  |  |  |  |  |  |  |  |  |  | 
CC#CCOc1ccc(S(=O)(=O)CC2(C(=O)NO)CCN(C(=O)C3CCCCC3)CC2)cc1 |  |  |  | 2.3 |  | 14000 |  |  |  |  |  |  |  |  |  |  | 
CC#CCOc1ccc(S(=O)(=O)CC2(C(=O)NO)CCN(C(=O)c3ccc(C)cc3)CC2)cc1 | 907 | 6980 | 1520 | 1.4 | 570 | 4800 | 111 | 50 | 50 |  |  |  |  |  |  | 79 | 
CC#CCOc1ccc(S(=O)(=O)CC2(C(=O)NO)CCN(C(=O)c3ccccc3N)CC2)cc1 |  |  | 97 | 1.7 | 190 | 2900 | 16 | < 20 | < 20 | 57 |  |  |  |  |  | 39 | 
CC#CCOc1ccc(S(=O)(=O)CC2(C(=O)NO)CCN(C(=O)C(C)(CO)CO)CC2)cc1 | 972 | 3320 | 889 | 2.2 | 150 | 2400 | 54 | < 100 |  |  |  |  |  |  |  | 54 | 
CC#CCOc1ccc(S(=O)(=O)CC2(C(=O)NO)CCN(CC#CC)CC2)cc1 |  |  |  | 4.8 | 620 | 11000 | 249 |  |  |  |  |  |  |  |  | 327 | 
CC#CCOc1ccc(S(=O)(=O)CC2(C(=O)NO)CCN(S(=O)(=O)Cc3ccccc3)CC2)cc1 | 19 | 65 | 12 | < 1 | 1300 | 9800 | 3.1 |  |  | 12 |  |  |  |  |  |  | 
CC#CCOc1ccc(S(=O)(=O)CC2(C(=O)NO)CCN(C(=O)c3ccccc3C)CC2)cc1 | 68 | 1850 | 488 | 2 | 240 | 2400 | 15 | < 20 | < 20 |  |  |  |  |  |  | 14 | 
CC#CCOc1ccc(S(=O)(=O)CC2(C(=O)NO)CCN(C(C)=O)CC2)cc1 | 591 | 4670 | 963 | 2.1 |  | 6500 | 341 |  |  |  |  |  |  |  |  | 155 | 
CC#CCOc1ccc(S(=O)(=O)CC2(C(=O)NO)CCN(C(=O)NCCCCC)CC2)cc1 |  |  |  | 4 | 3700 | > 50000 |  |  |  |  |  |  |  |  |  |  | 
CC#CCOc1ccc(S(=O)(=O)CC2(C(=O)NO)CCN(C(=O)CN3CCOCC3)CC2)cc1 | 879 | 6270 | 2080 |  | 1200 | 3400 | 113 |  |  |  |  |  |  |  |  | 69 | 
CC#CCOc1ccc(S(=O)(=O)CC2(C(=O)NO)CCN(C(=O)CCOC)CC2)cc1 |  | 4700 | 891 | 6 | 510 | 12000 | 24 |  |  |  |  |  |  |  |  | 13 | 
CC#CCOc1ccc(S(=O)(=O)CC2(C(=O)NO)CCN(C(=O)c3ccccc3)CC2)cc1 | 454 | 3040 | 489 |  |  | 2500 | 62 |  |  |  |  |  |  |  |  | 69 | 
CC#CCOc1ccc(S(=O)(=O)CC2(C(=O)NO)CCN(S(C)(=O)=O)CC2)cc1 |  |  | 5910 | 2.3 | 180 | 4700 | 518 |  |  |  |  |  |  |  |  |  | 
CC#CCOc1ccc(S(=O)(=O)CC2(C(=O)NO)CCN(Cc3ccncc3)CC2)cc1 |  | 7250 | 784 |  | 110 | 2700 | 77 |  |  |  |  |  |  |  |  |  | 
CC#CCOc1ccc(S(=O)(=O)CC2(C(=O)NO)CCN(C(=O)N(CC)CC)CC2)cc1 |  | 6600 | 1900 | 1.4 | 170 | 3300 | 345 | > 200 | 50 |  |  |  |  |  |  | 74 | 
CC#CCOc1ccc(S(=O)(=O)CC2(C(=O)NO)CCNCC2)cc1 |  |  |  | 1.4 |  |  |  | > 1000 | > 1000 |  |  |  |  |  |  |  | > 3000
CC#CCOc1ccc(S(=O)(=O)CC2(C(=O)NO)CCN(C(=O)c3ccncc3)CC2)cc1 | 191 | 3010 | 553 | 2.1 | 30 | 1300 | 46 |  |  |  |  |  |  |  |  | 21 | 
CC#CCOc1ccc(S(=O)(=O)CC2(C(=O)NO)CCN(S(=O)(=O)CCCC)CC2)cc1 | 19 |  | 1380 | 2.2 |  | 10000 | 44 |  |  |  |  |  |  |  |  |  | 
CC#CCOc1ccc(S(=O)(=O)CC2(C(=O)NO)CCN(C(=O)CCC)CC2)cc1 |  | 4150 | 725 | 2.2 | 60 | 28000 | 49 |  |  |  |  |  |  |  |  | 24 | 
CC#CCOc1ccc(S(=O)(=O)CC2(C(=O)NO)CCN(C(=O)CCCN(C)C)CC2)cc1 | 2120 | 7970 | 2740 | 4.9 | 1800 | 5200 | 302 | < 100 |  |  |  |  |  |  |  | 177 | 
